According to patent US10207988B2, “Methods and compositions for treatment of cancer and autoimmune disease” (THE JACKSON LABORATORY, priority 2011, dated 2019):

Key:
[1] = system: primary wild-type mouse splenocytes; experiment: radiosensitivity of primary splenocytes after exposure to DIDS (cell counts after 2.5 Gy); type: cell-based; conditions: Splenocyte, light or radiation study, 36 h, read-out: reduction in viability
Procedure: To validate DIDS as a potential agent, and to confirm its DSB repair inhibitory activity, radiosensitivity of primary wild-type mouse splenocytes was measured after exposure to DIDS. A total of 2×10^6 splenocytes were suspended in medium with 0, 300 μM, 600 μM or 1000 μM DIDS, or in vehicle-only control, and immediately given 2.5 Gy ionizing irradiation using a ^137Cs irradiator (Shepard). Cells were then cultured in medium containing the same DIDS concentration, and cell counts were determined after 36 hours recovery time.

[2] = system: primary mouse B-cells from AID knockout mice (AID−/−); experiment: viable cell counts (Trypan blue) of primary B-cells cultured with DIDS; type: cell-based; conditions: 0-150 μM DIDS
Procedure: (§1) Primary mouse B-cells were isolated from spleens of adult C57BL/6J mice (AID+/+) and from AID knockout mice (AID−/−) (see Example 1 and 2). 1×10^^6 primary B-cells were seeded into tissue culture plates, stimulated with 1 μg/ml anti-CD40 antibodies (anti-CD40; BD Pharmingen; Cat. No. 553721) and 25 ng/ml IL-4 or with anti-CD40 alone on day 0 and day 2. 0, 50 μM, 100 μM or 150 μM of DIDS was added at time 0 and 2 days after culture initiation, when culture volumes were adjusted to accommodate cell growth. The cells were cultured over 6 days. The number of viable cells were counted after staining with Trypan blue using a hemacytometer on days 1, 2, 3, 4 and 6. In FIG. 7 the number of viable primary B-cells from C57BL/6J mice (AID+/+) and AID-knockout mice (AID−/−) after treatment with DIDS is shown.

[3] = system: primary mouse B-cells from C57BL/6J mice (AID+/+); experiment: as above; type: cell-based
Procedure: as §1

[4] = system: primary chronic lymphocytic leukemia (CLL) cells; experiment: viable cell counts of primary human CLL cells treated with DIDS; type: cell-based; conditions: 150 μM or 600 μM DIDS, days 2, 4, 6, 8, relative to untreated control
Procedure: Blood samples (8-16 mL) from patients were collected via peripheral bleed into BD Vacutainer CPT tubes (BD, Franklin Lakes, N.J.), centrifuged to sequester red blood cells below the separation gel according to manufacturer instructions, and transported within 24 hours to the Jackson Laboratory. Upon receipt, peripheral blood mononuclear cells (PBMC) were isolated from samples according to manufacturer specifications. White blood cell (WBC) counts from 14 primary chronic lymphocytic leukemia (CLL) samples from human patients were calculated from complete blood count (CBC) with differentials. Calculated values were compared with empirical cell counts following cell separation and overnight shipping. […] The primary CLL samples (WBC) were diluted to standard concentration and 3.0×10^6 cells were seeded in cultures. Replicate cultures were supplemented with 0 μM (n=5), 150 μM DIDS (n=4), or 600 μM DIDS (n=2). Viable cell counts were determined by manual counting using a hemacytometer on days 2, 4, 6, and 8 of culture.

[5] = system: mouse B-lymphoid leukemia cell line CH12-F3; experiment: total cell counts of CH12-F3 cells cultured with DIDS; type: cell-based
Procedure: The mouse B-lymphoid leukemia cell line CH12-F3 was cultured in RPMI-1640 medium supplemented with 2-10 mM L-glutamine (Gibco), 10% (vol/vol) heat-inactivated fetal bovine serum (Omega Scientific) and 5% (vol/vol) NCTC 109 media (Gibco) (complete RPMI; non-activated) or complete RPMI-1640 medium containing 1 μg/ml anti-CD40 antibody, 25 ng/ml IL-4 and 1 ng/ml transforming growth factor beta 1 (TGF-beta1) (activated). Cultures were supplemented with 0, 50, 100, or 150 micromolar DIDS, and total cell counts were determined by manual cytometry after 0, 1, 2, 3, 4, or 6 days in culture.

[6] = system: BXSB.Yaa Cd8/IL15−/− mice; experiment: mouse systemic lupus erythematosus (SLE) model treated with DIDS; type: in vivo
Description: BXSB.Yaa Cd8/IL15−/− mice are an established model for SLE. These mice display many characteristics of human SLE including hypergammaglobulinemia, circulating antinuclear antibodies and immune complex medicated glomerulonephritis, and ultimately succumb to disease around 24 weeks of age (Andrews et al. 1978, J Exp Med 148: 1198-215; Dixon et al. 1978, Arthritis Rheum 21: S64-7; Izui et al. 2000, Int Rev Immunol 19: 447-72). Genetic deletion of Cd8a and IL15 from the model results in a similar clinical phenotype which appears much early with survival averaging 14 weeks of age (McPhee et al. 2011, J Immunol 187:4695-4704)
Six week old male BXSB.Cg-Cd8a<tm1Mak> IL15<tm1Imx>/Dcr (abbreviated as BXSB.Yaa Cd8/IL15−/−) mice were retro-orbitally bled into heparin primed tubes to collect serum. 25 mg/kg (n=5) or 50 mg/kg DIDS (n=6) in 4% potassium bicarbonate with PBS or an equivalent volume of 4% potassium bicarbonate (n=2 and n=4) was administered intraperitoneally on day 0, and every seven days for five weeks. Mice were weighed weekly and serum was collected at 14 day intervals for a 5-week period. These mice were then aged for survival. The serum was analyzed by ELISA for IgG1 and IgG2b content. For the ELISA plates were coated with goat anti-mouse Ig (IgG1 or IgG2b) and incubated overnight at […] Plates were washed three times and P-nitrophenyl Phosphate (p-NPP, AMRESCO) was applied, incubated until standards developed adequately and read on a SpectraMax ELISA plate reader using SoftmaxPro software. Data are expressed as concentration of IgG (mg/ml) based on titration of isotype-specific purified mouse standards. […] Survival data was analyzed using Graphpad Prism software and assessed for statistical significance using both the log-rank Mantel Cox with (FIG. 20A for the 25 mg/kg group with a p value of 0.4289 and FIG. 20B for the 50 mg/kg group with a p value of 0.3698) and Gehan-Breslow-Wilcoxan tests (FIG. 21A for the 25 mg/kg group with a p value of 0.7003 and FIG. 21B for the 50 mg/kg group with a p value of 0.7505).

O=S(=O)([O-])c1cc(N=C=S)ccc1/C=C/c1ccc(N=C=S)cc1S(=O)(=O)[O-].[Na+].[Na+] [DIDS, 4,4′diisothiocyanostilbene-2,2′-disulfonic acid]
cytotoxicity at 600 µM [1]: ~25% | cytotoxicity at 1000 µM [1]: 87% | number of viable cells [2]: no significant change in cell viability | number of viable cells ([3]; 100 μM DIDS, stimulated with anti-CD40 + IL-4): decrease of B-cell viability | number of viable cells ([3]; 150 μM DIDS, stimulated with anti-CD40 + IL-4, days 1-6): greatly reduces the cell viability from day 3 on | number of viable cells ([3]; not stimulated with anti-CD40+IL-4): does not influence the cell viability | viable cell counts [4]: significant decline in viable cell counts | total cell number ([5]; activated cells (anti-CD40, IL-4, TGF-beta1), 150 micromolar DIDS): strong decrease of total cell number | total cell number ([5]; non-activated cells, 0-150 micromolar DIDS): no difference in cell viability or cell proliferation | IgG2b serum content (ELISA) ([6]; 25 mg/kg DIDS intraperitoneally every seven days): striking decrease | body weight ([6]; 25 mg/kg DIDS intraperitoneally every seven days for five weeks, versus controls): no weight difference | IgG1 serum content (ELISA) ([6]; DIDS intraperitoneally every seven days): No significant difference
